Control value data for 1 molecule are collected here from patent publication US20240124436A1 (priority 2019, published 2024).

Like-named read-outs stand apart in the source and are kept apart here.

The subject of this assay is pathogens of rice blast. It is filed as cell-based. Particulars: 25° C., 6 days, elongation length of hyphae.

In the case of `COc1nc(-c2nccs2)nc(F)c1C(F)(F)F` [Example 3, 6-fluoro-4-methoxy-2-(2-thiazolyl)-5-(trifluoromethyl)pyrimidine], the Control value is, setting by setting: (test solution 1000 ppm, 1,000 μl on oatmeal culture medium) 68; (test solution 2000 ppm, 1,000 μl on oatmeal culture medium) 100.
